Experimental data reported in patent publication US9365604B2, “Oligomer-nucleoside phosphate conjugates” (NEKTAR THERAPEUTICS, priority 2007, dated 2016).
Read-outs that look alike come from different tables or passages of the source. Values belong to the molecule of their own block, whether it stands above or below them.

Key:
HCT15 = assay: Sulforhodamine B (SRB) growth inhibition assay; type: cell-based, Human; details: SRB assay, cells exposed for 24 h, read-out: GI50 values (μM) HCT15
Protocol: (§1) In Vitro Screening of PEG-Gemcitabine Monophosphate in Selected Human Cancer Cell Lines
(§2) The aim was to determine the GI50 values for PEG-floxuridine conjugates against a panel of cell lines, and based on previous data from Xenograft studies. […] The test articles were solubilized in dimethylsulfoxide and were tested at four different molar (M) concentrations; 10^−4, 10^−5, 10^−6, M. GI50 (the concentration needed to reduce the growth of treated cells to half that of untreated control cells) was calculated for each condition ([(Ti−Tz)/(C-Tz)]×100=50, where Ti, Tz, and C refer to absorbance values obtained from each tested concentration, time zero, and control treatment, respectively).
as §2, with “The objective” for “The aim”, “the IC50” for “the GI50”, “for PEG-gemcitabine” for “for PEG-floxuridine”, “in dimethyl sulfoxide” for “in dimethylsulfoxide”, “10^−6, 10^−7” for “10^−6,”, “condition ([(Ti−Tz)/(C−Tz)]×100=50,” for “condition ([(Ti−Tz)/(C-Tz)]×100=50,”

MCF7 = assay: Sulforhodamine B (SRB) growth inhibition assay; type: cell-based, Human; details: for GI50: SRB assay, cells exposed for 24 h, read-out: GI50 values (μM) MCF7
Protocol: as §1, §2
as §2, with “The objective” for “The aim”, “the IC50” for “the GI50”, “for PEG-gemcitabine” for “for PEG-floxuridine”, “in dimethyl sulfoxide” for “in dimethylsulfoxide”, “10^−6, 10^−7” for “10^−6,”, “condition ([(Ti−Tz)/(C−Tz)]×100=50,” for “condition ([(Ti−Tz)/(C-Tz)]×100=50,”

HT29 = assay: Sulforhodamine B (SRB) growth inhibition assay; type: cell-based, Human; details: for GI50: cells exposed for 24 h, read-out: GI50 values (μM) HT29
Protocol: as §1, §2
as §2, with “The objective” for “The aim”, “the IC50” for “the GI50”, “for PEG-gemcitabine” for “for PEG-floxuridine”, “in dimethyl sulfoxide” for “in dimethylsulfoxide”, “10^−6, 10^−7” for “10^−6,”, “condition ([(Ti−Tz)/(C−Tz)]×100=50,” for “condition ([(Ti−Tz)/(C-Tz)]×100=50,”

Hop62 = assay: Sulforhodamine B (SRB) growth inhibition assay; type: cell-based, Human; details: for GI50: cells exposed for 24 h, read-out: GI50 values (μM) Hop62
Protocol: as §1, §2
as §2, with “The objective” for “The aim”, “the IC50” for “the GI50”, “for PEG-gemcitabine” for “for PEG-floxuridine”, “in dimethyl sulfoxide” for “in dimethylsulfoxide”, “10^−6, 10^−7” for “10^−6,”, “condition ([(Ti−Tz)/(C−Tz)]×100=50,” for “condition ([(Ti−Tz)/(C-Tz)]×100=50,”

COLO205 = assay: Sulforhodamine B (SRB) growth inhibition assay; type: cell-based, Human; details: COLO205; SRB assay, cells exposed for 24 h; read-out: GI50 values (μM) COLO205
Protocol: as §1, §2
as §2, with “The objective” for “The aim”, “the IC50” for “the GI50”, “for PEG-gemcitabine” for “for PEG-floxuridine”, “in dimethyl sulfoxide” for “in dimethylsulfoxide”, “10^−6, 10^−7” for “10^−6,”, “condition ([(Ti−Tz)/(C−Tz)]×100=50,” for “condition ([(Ti−Tz)/(C-Tz)]×100=50,”

A2780 = assay: Sulforhodamine B (SRB) growth inhibition assay; type: cell-based, Human; details: for GI50: SRB assay, cells exposed for 24 h, read-out: GI50 values (μM) A2780
Protocol: as §1, §2
as §2, with “The objective” for “The aim”, “the IC50” for “the GI50”, “for PEG-gemcitabine” for “for PEG-floxuridine”, “in dimethyl sulfoxide” for “in dimethylsulfoxide”, “10^−6, 10^−7” for “10^−6,”, “condition ([(Ti−Tz)/(C−Tz)]×100=50,” for “condition ([(Ti−Tz)/(C-Tz)]×100=50,”

HCT-116 = assay: In vitro cytotoxicity assay (CellTiter-Glo); type: cell-based; details: for IC50: 72 h exposure, CellTiter-Glo
Protocol: (§3) The objective of these studies were to determine the IC50 values for PEG-floxuridine conjugates against floxuridine-resistant cell lines based on data from previous Xenograft studies. The cells were exposed for 72 h, and cell viability assessed by using the CellTiter-Glo assay.
(§4) The objective of these studies was to determine the IC50 values for PEG-gemcitabine conjugates against gemcitabine-resistant cell lines based on data from previous Xenograft studies. The cells were exposed for 72 h, and cell viability assessed by using the CellTiter-Glo assay.

MIA PaCa-2 = assay: In vitro cytotoxicity assay (CellTiter-Glo); type: cell-based; details: for IC50: 72 h exposure, CellTiter-Glo
Protocol: as §3, §4

HT-29 = assay: In vitro cytotoxicity assay (CellTiter-Glo); type: cell-based; details: for IC50: 72 h exposure, CellTiter-Glo
Protocol: as §3, §4

DU145 = assay: Sulforhodamine B (SRB) growth inhibition assay; type: cell-based, Human; details: for GI50: cells exposed for 24 h, read-out: GI50 values (μM) DU145
Protocol: as §2
as §2, with “The objective” for “The aim”, “the IC50” for “the GI50”, “for PEG-gemcitabine” for “for PEG-floxuridine”, “in dimethyl sulfoxide” for “in dimethylsulfoxide”, “10^−6, 10^−7” for “10^−6,”, “condition ([(Ti−Tz)/(C−Tz)]×100=50,” for “condition ([(Ti−Tz)/(C-Tz)]×100=50,”

NCI/ADR-RES = assay: Sulforhodamine B (SRB) growth inhibition assay; type: cell-based, Human; details: cells exposed for 24 h, read-out: GI50 values (μM) NCI/ADR-RES
Protocol: as §1
(§5) The aim was to determine the GI50 values for PEG-floxuridine conjugates against a panel of cell lines, and based on previous data from Xenograft studies. The cells were exposed for 24 h, and cell viability assessed by using the Sulphorhodamine (SRB) assay. The test articles were solubilized in dimethylsulfoxide and were tested at four different molar (M) concentrations; 10^−4, 10^−5, 10^−6, M. GI50 (the concentration needed to reduce the growth of treated cells to half that of untreated control cells) was calculated for each condition ([(Ti−Tz)/(C-Tz)]×100=50, where Ti, Tz, and C refer to absorbance values obtained from each tested concentration, time zero, and control treatment, respectively).
as §5, with “The objective” for “The aim”, “the IC50” for “the GI50”, “for PEG-gemcitabine” for “for PEG-floxuridine”, “in dimethyl sulfoxide” for “in dimethylsulfoxide”, “10^−6, 10^−7” for “10^−6,”, “condition ([(Ti−Tz)/(C−Tz)]×100=50,” for “condition ([(Ti−Tz)/(C-Tz)]×100=50,”

CAKI-1 = assay: In vitro cytotoxicity assay (CellTiter-Glo); type: cell-based; details: for IC50: 72 h exposure, CellTiter-Glo
[1] = Bi-directional permeability in Caco-2 cells; details: human
Description: (§6) Bi-Directional Permeability of PEG-Floxuridine Conjugates in Caco-2 and MDCK Cells

[2] = Bi-directional permeability in MDCK cells; details: dog
Description: as §6

in vitro [3] = details: dog, MDCK
Description: as §6

in vitro [4] = details: human, Caco-2
Description: as §6

[5] = Stability in cell culture medium (floxuridine release, HPLC); type: in vitro ADME
Protocol: The frozen samples were thawed and homogenized by vortex mixing. A 10 μl aliquot of the sample was transferred into a clean EPPENDORF tube. Samples were diluted with 190 μl methanol: water mixture (1:1, v/v). The tubes were vortex mixed and centrifuged for 10 min. The supernatant was transferred to HPLC vials and 10 μl volume of the sample was injected onto the HPLC system.

[6] = GI50 of conjugate vs floxuridine

Papp A -> B (Caco-2 cells): <0.19 10^−6 cm/s | Papp B -> A (Caco-2 cells): <0.25 10^−6 cm/s | Significant efflux (Caco-2 cells): No | percent recovery A -> B (Caco-2 cells): 96% | percent recovery B -> A (Caco-2 cells): 94% | GI50 (HCT15): 32 µM | ratio vs flox (GI50) MCF7 (MCF7; [6]): 0.7 | GI50 (MCF7): 0.11 µM | ratio vs flox (GI50) HT29 (HT29; [6]): 4 | GI50 (HT29; SRB assay): > 100 µM | GI50 (COLO205): 1.8 µM | ratio vs flox (GI50) A2780 (A2780; [6]): 32 | GI50 (A2780): 2.1 µM | Papp A -> B (MDCK cells): <0.06 10^−6 cm/s | Papp B -> A (MDCK cells): <0.07 10^−6 cm/s | Significant efflux (MDCK cells): No | percent recovery A -> B (MDCK cells): 98% | percent recovery B -> A (MDCK cells): 98% | ratio vs flox (GI50) DU145 (DU145; [6]): 0.005 | GI50 (DU145; SRB assay): 0.12 µM
SMILES: COCCOCCOCCOP(=O)(O)OC[C@H]1O[C@@H](n2cc(F)c(=O)[nH]c2=O)C[C@@H]1O [Floxuridine Mono (mPEG3), 5′-floxuridine methoxy tri(ethylene glycol) phosphate]
ratio vs flox (GI50) Hop62 (Hop62; [6]): 417 | GI50 (Hop62; SRB assay): > 100 µM | Ratio vs floxuridine (IC50) HCT-116 (HCT-116): 2 | IC50 (HCT-116): 56 nM | Ratio vs floxuridine (IC50) MIA PaCa-2 (MIA PaCa-2): 1 | IC50 (MIA PaCa-2): 64 nM | Ratio vs floxuridine (IC50) HT-29 (HT-29): 1 | IC50 (HT-29): 87 nM | GI50 (NCI/ADR-RES): < 0.1 µM | Ratio vs floxuridine (IC50) CAKI-1 (CAKI-1): 1 | IC50 (CAKI-1): 145 nM

Significant efflux (Caco-2 cells): No | permeability across Caco-2 monolayers (in words) (Caco-2 cells): poor permeability | recovery ([1]; Caco-2, percent recovery A -> B): 75% | recovery ([1]; Caco-2, percent recovery B -> A): 91% | GI50 (MCF7; Homo sapiens): 0.15 µM | GI50 (HT29; Homo sapiens, HT-29, SRB assay): 25 µM | GI50 (A2780; Homo sapiens): 0.065 µM | Significant efflux (MDCK cells): No | permeability through MDCK monolayers (in words) (MDCK cells): poor permeability | recovery ([2]; percent recovery A -> B): 50% | recovery ([2]; percent recovery B -> A): 82% | Papp A→B (in vitro [3]): < 2.46 ×10⁻⁶ cm/s | Papp B→A (in vitro [3]): < 2.7 ×10⁻⁶ cm/s | Papp A→B (in vitro [4]): 0.75 ×10⁻⁶ cm/s | Papp B→A (in vitro [4]): 1.47 ×10⁻⁶ cm/s | efflux ratio (in vitro [4]): 2 | GI50 (DU145; Homo sapiens, DU-145, SRB assay): 26 µM | Peak Area of measured floxuridine ([5]; HPLC, supernatant of MCF-7 culture after 48 h with test article): 119819 | concentration of floxuridine estimated in culture medium ([5]; after cells were treated with test article): 24.44 | Calculated Concentration (μg/mL) of floxuridine ([5]; diluted sample (10 μL diluted to 200 μL), MCF-7 culture supernatant, 48 h): 1.211 µg/mL | Total Calculated Concentration in the sample using dilution factor ([5]; floxuridine in MCF-7 culture supernatant, 48 h, nominal 24.6 μg/mL): 24.22
SMILES: O=c1[nH]c(=O)n([C@H]2C[C@H](O)[C@@H](CO)O2)cc1F [Floxuridine, reference compound]
GI50 (Hop62; Homo sapiens, HOP-62, SRB assay): 0.24 µM | IC50 (HCT-116; Homo sapiens): 32 nM | IC50 (MIA PaCa-2; Homo sapiens): 54 nM | IC50 (HT-29; Homo sapiens): 90 nM | IC50 (CAKI-1; Homo sapiens): 110 nM
